Results: paper PMC9495004, “In Vitro Biological Activity of Natural Products from the Endophytic Fungus Paraboeremia selaginellae against Toxoplasma gondii” (Antibiotics, 2022)
pIC50: −log10 of the molar value. ≈ marks a conversion by molar mass, not a printed value. Where two headings read alike, the source gives them in different places.

What was measured:
[1] = test system: M. tuberculosis H37Rv; test: Minimal inhibitory concentration, resazurin reduction assay, M. tuberculosis; assay type: cell-based, Mycobacterium tuberculosis; details: for MIC90: Mycobacterium tuberculosis, H37RV, 120 h, read-out: MIC90 M. tuberculosis H37Rv
[2] = test system: S. aureus ATCC 700699; test: Minimal inhibitory concentration assay (BacTiter Glo), S. aureus; assay type: cell-based; details: Staphylococcus aureus, read-out: MIC90 S. aureus ATCC 700699
[3] = MTT cell viability assay against Hs27 cells; assay type: cell-based; details: human, Hs27 fibroblast cells, >100 µM indicates no activity, read-out: CC50 against human fibroblasts Hs27
Method: Figure 4 Effect of the natural products on the metabolic activity of Hs27 cells via MTT assay. Hs27 cells were plated in 96-well plates and grown to confluence prior to incubation at 37 °C for 24 h with the natural products in the concentration range of […]. The cultures were incubated with 10 μL of the 12 mM MTT stock solution for approximately 4 h. Afterwards, 100 μL of SDS dissolved in HCl was added to each well and incubated again for 4 h at 37 °C. Finally, the absorbance was measured at 570 nm by spectrophotometry. Values shown in (A–F) represent the means of three independent experiments each done in duplicate (n = 6) ± SEM. Cytotoxicity in Hs27 cells of NK-A 17e233 (A); 1,2-benzenediol, 3-(4-hydroxy-2-methoxy-6-methylphenoxy)-5-methyl-(ACI) (B); cyperin (C); ES-242-1 (D); ES-242-3 (E); 5S,6S-phomalactone (F).
The 3-[4,5-dimethylthiazole-2-yl]-2,5-diphenyltetrazolium bromide (MTT) test was used to assess cell viability of the isolated active compounds against Hs27 cells. The MTT assay is a colorimetric reaction based on the enzymatic reduction of MTT to MTT-formazan, which is catalyzed by mitochondrial succinate dehydrogenase.
In brief, Hs27 cells were seeded 96-well plates in a monolayer in Iscove’s modified Dulbecco’s medium (Gibco–Thermo Fisher Scientific, Braunschweig, Germany) and incubated at 37 °C with different concentrations of the tested natural products (1.56, 3,12, 6.25, 12,5, 25, 50, 100 µM) in the culture media. Staurosporine ([…], 0.25, 0.5, 1 µM), a well-known cytotoxicity-inducing kinase inhibitor [40], untreated Hs27 cells, and DMSO were used as controls. After 24 h, the medium of the culture was removed and replaced with 100 μL of DMEM without red phenol (Gibco–Thermo Fisher Scientific, Braunschweig, Germany) plus 10% heat-inactivated fetal bovine serum (Invitrogen, Karlsruhe, Germany), and […] 2-mercaptoethanol (Gibco–Thermo Fisher Scientific, Braunschweig, Germany). Afterwards, the 12 mM MTT solution was added to each well according to the manufacturer’s instruction (Vybrant MTT Cell Proliferation Assay Kit, Thermo Fisher Scientific, Braunschweig, Germany). The OD value of each well was assayed at the wavelength of 570 nm on a microplate reader (TECAN Sunrise, Männedorf, Switzerland). The 50% cytotoxic concentration (CC50 values) of the tested natural products on Hs27 cells was calculated and all data were analyzed using Prism GraphPad version 9.2.0 software.

[4] = test system: T. gondii strain ME49; test: T. gondii proliferation assay (3H-uracil incorporation); assay type: cell-based, Toxoplasma gondii
[5] = test system: HEK293 (human embryonic kidney cell line); test: Resazurin cytotoxicity assay, HEK-293; assay type: cell-based; details: for pIC50: Homo sapiens, read-out: Mean IC50 HEK-293
Method: (§1) Figure 5 Effect of the natural products on the viability of THP-1, Huh-7, and HEK-293 cells. Cytotoxic effect of NK-A17e233 (A); 1,2-benzenediol,3-(4-hydroxy-2-methoxy-6-methylphenoxy)-5-methyl-(ACI) (B); cyperin (C); ES-242-1 (D); ES-242-3 (E); 5S,6S-phomalactone (F) against the human cell lines THP-1, Huh-7, and HEK-293 as determined by resazurin assay. 100% growth control DMSO, 0% growth control cycloheximide. Values represent the means of triplicates ± SEM.
(§2) The cytotoxicity study was carried out using the THP-1 (human monocytic leukemia cell line), Huh-7 (Human liver carcinoma cell line), and HEK293 (human embryonic kidney cell line) cell lines as described before. The THP-1 cells were cultured using RPMI 1640 medium containing 2 mM L-glutamine and supplemented with 10% fetal calf serum (FCS) and 1% sodium pyruvate. Huh-7 cells were cultured using a 1:1 mixture of RPMI 1640 medium containing 2 mM L-glutamine and 10% FCS medium and DMEM containing 10% FCS and 1% sodium pyruvate. The HEK-293 cells were cultured with DMEM including 2 mM L-glutamine and supplemented with 1% NE amino acids, 1% 1.0 mM sodium pyruvate and 10% FCS. All three cell lines were then incubated at 37 °C in an atmosphere of 5% CO2 under humid conditions for 2 weeks while renewing the medium twice weekly. Subsequently, the cells were suspended and adjusted to a density of 2 × 10^5 cells/mL. In a 96-well flat-bottom microtiter plate, the cells were adjusted to a total volume of 100 μL containing 2-fold serial dilutions of the tested compounds A–F ranging from 100 to 1.56 μM. Cycloheximide (4, 2, 1, 0.5, 0.25, 0.13, 0.06, 0.03 µg/mL) was used as a positive control. After an incubation time of 48 h at 37 °C in an atmosphere of 5% CO2 under humid conditions, 10 μL resazurin solution (100 μg/mL) was added to each well and incubated for another 4 h. The fluorescence was then quantified using a Tecan Infinite 200pro microplate reader (excitation 540 nm, emission 590 nm). The residual growth was calculated relative to non-inoculated conditions (0% growth) and controls treated with DMSO (100% growth).

[6] = test system: Huh-7 (Human liver carcinoma cell line); test: Resazurin cytotoxicity assay, Huh-7; assay type: cell-based; details: for pIC50: Homo sapiens, read-out: Mean IC50 Huh-7
Method: as §1, §2

[7] = test system: P. aeruginosa ATCC 87110; test: Minimal inhibitory concentration assay (BacTiter Glo), P. aeruginosa; assay type: cell-based; details: Pseudomonas aeruginosa, read-out: MIC90 P. aeruginosa ATCC 87110
[8] = test system: THP-1 (human monocytic leukemia cell line); test: Resazurin cytotoxicity assay, THP-1; assay type: cell-based; details: for pIC50: Homo sapiens, read-out: Mean IC50 THP1
Method: as §1, §2

[9] = test system: Plasmodium falciparum; details: cited from earlier work
[10] = 5 days, resazurin, >100 µM indicates no activity
[11] = ATCC700699, 24 h, >100 µM indicates no activity
[12] = Toxoplasma gondii, HS27, Hs27 host cells, 48 h treatment, 3H-uracil incorporation, read-out: IC50 against T. gondii strain ME49 (proliferation)
[13] = HEK293, resazurin assay, 48 h, >100 µM indicates no activity
[14] = Huh-7, resazurin assay, 48 h, >100 µM indicates no activity
[15] = ATCC87110, 24 h, >100 µM indicates no activity
[16] = THP-1, resazurin assay, 48 h, >100 µM indicates no activity
[17] = Toxoplasma gondii, HS27, read-out: IC50 against T. gondii strain ME49 (proliferation)
[18] = reported activity, read-out: IC50 against P. falciparum
[19] = resazurin assay, 48 h, >100 µM indicates no activity
[20] = Hs27 host cells, 48 h treatment, 3H-uracil incorporation

SMILES | MIC90 M. tuberculosis H37Rv [1, 10] | MIC90 [1, 10] | MIC90 [2, 11] | CC50 at 24 h [3] | pIC50 [4, 12] | pIC50 [5, 13] | pIC50 [6, 14] | MIC90 [7, 15] | pIC50 [8, 16] | pIC50 [4, 17] | also measured
COc1cc(O)cc(C)c1Oc1cc(C)cc(O)c1O [B, 3-(4-Hydroxy-2-methoxy-6-methylphenoxy)-5-methylbenzene-1,2-diol] | no inhibitory effect | > 100 µM | > 100 µM | > 100 µM | 4.71 | < 4.00 | < 4.00 | > 100 µM | < 4.00 | – | pIC50 ([4]; Hs27 host cells, 48 h treatment, 3H-uracil incorporation, read-out: IC50 against T. gondii strain ME49 (proliferation)): 4.65
COc1cc(C)c(Oc2cc(C)cc(O)c2O)c(O)c1 [Compound A, NK-A 17e233] | no inhibitory effect | > 100 µM | > 100 µM | > 100 µM | 5.24 | < 4.00 | < 4.00 | > 100 µM | < 4.00 | – | –
COc1cc(C)c(Oc2cc(C)cc(O)c2)c(O)c1 [Compound C, cyperin] | no inhibitory effect | – | – | > 100 µM | – | – | – | – | – | 4.57 | MIC90 [1]: > 100 µM; MIC90 ([2]; ATCC700699, 24 h): > 100 µM; pIC50 ([5]; HEK293, 48 h): < 4.00; pIC50 ([6]; Huh-7, 48 h): < 4.00; MIC90 ([7]; ATCC87110, 24 h): > 100 µM; pIC50 ([8]; THP-1, 48 h): < 4.00
COc1cc(OC)c2c(O)c3c(c(-c4c5c(c(O)c6c(OC)cc(OC)cc46)CO[C@@H](C)[C@H]5OC(C)=O)c2c1)C[C@@H](C)OC3 [D, ES-242-1] | – | 50 µM (≈ 30.2 µg/mL) | > 100 µM | > 100 µM | 5.13 | 4.03 | < 4.00 | > 100 µM | < 4.00 | – | pIC50 [9, 18]: 5.07
COc1cc(OC)c2c(O)c3c(c(-c4c5c(c(O)c6c(OC)cc(OC)cc46)CO[C@@H](C)[C@H]5OC(C)=O)c2c1)C(O)[C@@H](C)OC3 (stereo partly shown) [E, ES-242-3] | – | 100 µM (≈ 62.1 µg/mL) | > 100 µM | > 100 µM | 4.74 | 4.77 | 4.89 | > 100 µM | 4.66 | – | pIC50 [9, 18]: 4.88; Mean IC50 HEK-293 [5, 19]: moderate cytotoxic activity; Mean IC50 Huh-7 [6, 19]: moderate cytotoxic activity; Mean IC50 THP1 [8, 19]: moderate cytotoxic activity
C/C=C/[C@@H]1OC(=O)C=C[C@@H]1O [F, 5S,6S-phomalactone] | no inhibitory effect | – | > 100 µM | 81 µM | – | 4.17 | 4.00 | 100 µM (≈ 15.4 µg/mL) | 4.61 | 5.29 | MIC90 [1]: > 100 µM; pIC50 ([9]; previous report, read-out: IC50 against Plasmodium falciparum): 4.07; Mean IC50 HEK-293 [5, 19]: no or weak cytotoxic effects; Mean IC50 Huh-7 [6, 19]: no or weak cytotoxic effects
Cc1cc(O)c(C)c(=O)o1 [G, methyltriaceticlactone] | no inhibitory effect | > 100 µM | > 100 µM | – | – | – | – | > 100 µM | – | – | IC50 against T. gondii strain ME49 (proliferation) [4, 20]: Not active
CCC(C)CC(C)/C=C(C)/C=C/CC(C)C(O)C(C)/C=C(C)/C=C/C(O)C(C)(C)c1cc(O)c([C@H]2O[C@@H](CO)C[C@@H](O)[C@@H]2O)c(=O)o1 (stereo partly shown) [H, S 39163/F-1] | no inhibitory effect | > 100 µM | > 100 µM | – | – | – | – | > 100 µM | – | – | IC50 against T. gondii strain ME49 (proliferation) [4, 20]: Not active
CCc1nc(N)nc(N)c1-c1ccc(Cl)cc1 [pyrimethamine, reference compound] | – | – | – | 44 µM | – | – | – | – | – | 7.22 | –
